pIC50: −log10 of the molar value.
Tests used:
[1] = system: TYK2 pseudokinase (JH2); IL-23-stimulated HEK-Blue IL-23 cells; experiment: HEK-Blue IL-23 reporter assay (STAT3-inducible SEAP) for profiling TYK2 pseudokinase (JH2) inhibition; assay type: cell-based; settings: 10 ng/mL human recombinant IL-23, SEAP readout, read-out: IL23 (TYK2 inhibitory activity, IC50)
In short: (§1)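 Cells plated 20-22 h at 37 °C, 5% CO2 in DMEM with 10% heat-inactivated FBS, then pretreated with serially diluted compound for 60 min. Stimulation: 10 ng/mL human recombinant IL-23 for 22-24 h, or 1 ng/mL human recombinant IFNα for 16-18 h. SEAP induction read with QUANTI-Blue.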

[2] = system: TYK2 pseudokinase (JH2); IFNα-stimulated HEK-Blue IFNα/β cells; experiment: HEK-Blue IFNα/β reporter assay (STAT1-inducible SEAP) for profiling TYK2 pseudokinase (JH2) inhibition; assay type: cell-based; settings: 1 ng/mL human recombinant IFNα, SEAP readout, read-out: IFNα (TYK2 inhibitory activity, IC50)
In short: as §1

TYK2 kinase domain (JH1) = biological target: T1, TYK2 kinase domain (JH1) (Homo sapiens, UniProt P29597); experiment: HTRF-based selectivity assay, TYK2 catalytic domain; assay type: biochemical; settings: 20 μM ATP
T1 construct: recombinant purified His or GST-tagged catalytic domain for each enzyme; made in house
T1 sequence (P29597 897-1176 limits assumed): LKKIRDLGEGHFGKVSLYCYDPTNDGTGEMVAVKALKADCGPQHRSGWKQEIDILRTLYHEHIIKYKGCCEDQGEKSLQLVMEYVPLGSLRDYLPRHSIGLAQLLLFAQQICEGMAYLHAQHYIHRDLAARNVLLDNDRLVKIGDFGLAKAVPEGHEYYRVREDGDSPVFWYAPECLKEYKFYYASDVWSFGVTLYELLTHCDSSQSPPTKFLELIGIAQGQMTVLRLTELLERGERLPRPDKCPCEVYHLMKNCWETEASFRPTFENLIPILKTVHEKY
Method: (§2) Example B-2: HTRF-Based Selectivity Assay
(§3) The ability of compounds to inhibit the activity of JAK1, JAK2, JAK3 and TYK2 is measured using a recombinant purified His or GST-tagged catalytic domain for each enzyme (JAK1, JAK2 and TYK2 are generated in-house; JAK3 was purchased from Carna biosciences, Cat #08-046) in an HTRF format biochemical assay. The reactions employs a commercial peptide substrate from Cisbio (Cat #62TK0PEC). The basic assay protocol is as follows: first, 2.5 μL of diluted compounds (4×) in DMSO are dispensed into a 384-well Optiplate. Next, 2.5 μL of enzyme (final concentrations for enzymes are: TYK2—700 ng/mL, JAK1—80.6 ng/mL, JAK2—2.1 ng/mL and JAK3—171.8 ng/mL) is added and incubated at RT for 5-20 min. Finally, 5 μl of mixture of 2×ATP [Final concentration 20 μM for TYK2, 21.43 μM for JAK1, 14.7 μM for JAK2 and 2.12 μM for JAK3]+2× Substrate [Final concentration 217 nM for TYK2, 454.7 nM for JAK1, 200 nM for JAK2 and 257.4 nM for JAK3] is added to 384 well Optiplate. Composition of Kinase assay buffer used in the assay is as follows: HEPES 50 mM, EGTA 1 mM, MgCl2 10 mM, DTT 2 mM, Tween-20 0.01% and water. Then the plates are shaken and then incubated at 26.5° C. for 60 min.

JAK1 kinase domain (JH1) = biological target: T2, JAK1 kinase domain (JH1) (Homo sapiens, UniProt P23458); experiment: HTRF-based selectivity assay, JAK1 catalytic domain; assay type: biochemical; settings: 21.43 μM ATP, read-out: JAK-JHI (IC50)
T2 construct: recombinant purified His or GST-tagged catalytic domain for each enzyme; made in house
Method: as §2, §3

JAK2 kinase domain (JH1) = biological target: T3, JAK2 kinase domain (JH1) (Homo sapiens, UniProt O60674); experiment: HTRF-based selectivity assay, JAK2 catalytic domain; assay type: biochemical; settings: 14.7 μM ATP
T3 construct: recombinant purified His or GST-tagged catalytic domain for each enzyme; made in house
Method: as §2, §3

JAK3 kinase domain (JH1) = biological target: T4, JAK3 kinase domain (JH1) (Homo sapiens, UniProt P52333); experiment: HTRF-based selectivity assay, JAK3 catalytic domain; assay type: biochemical; settings: 2.12 μM ATP
T4 construct: recombinant purified His or GST-tagged catalytic domain for each enzyme; purchased Carna biosciences 08-046
Method: as §2, §3

[3] = system: IL-2-stimulated HEK-Blue IL-2 reporter cells; experiment: HEK-Blue IL-2 reporter assay (STAT5-inducible SEAP) for determining selectivity; assay type: cell-based; settings: 4 ng/mL human recombinant IL-2, 24 hours
In short: (§4)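 Cells were plated for 20-22 h, then pretreated with serially diluted compound for 60 min. They were stimulated for 24 h with 4 ng/mL human recombinant IL-2 or 50 ng/mL human recombinant IFNγ, and SEAP induction was read with QUANTI-Blue.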

[4] = system: IFNγ-stimulated HEK-Blue IFNγ reporter cells; experiment: HEK-Blue IFNγ reporter assay (STAT1-inducible SEAP) for determining selectivity; assay type: cell-based; settings: 50 ng/mL human recombinant IFNγ, 24 hours, read-out: IFN-γ SEAP selectivity assay IC50
In short: as §4

T4 sequence (P52333 822-1111 limits assumed): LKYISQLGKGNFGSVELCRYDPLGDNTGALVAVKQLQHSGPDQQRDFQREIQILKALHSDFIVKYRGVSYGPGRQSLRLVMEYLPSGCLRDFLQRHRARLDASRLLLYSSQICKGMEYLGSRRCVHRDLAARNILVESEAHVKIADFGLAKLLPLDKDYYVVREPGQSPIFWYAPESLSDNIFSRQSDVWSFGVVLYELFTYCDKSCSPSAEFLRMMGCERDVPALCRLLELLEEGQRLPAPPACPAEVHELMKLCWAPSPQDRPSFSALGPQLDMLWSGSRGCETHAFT
T3 sequence (O60674 849-1124 limits assumed): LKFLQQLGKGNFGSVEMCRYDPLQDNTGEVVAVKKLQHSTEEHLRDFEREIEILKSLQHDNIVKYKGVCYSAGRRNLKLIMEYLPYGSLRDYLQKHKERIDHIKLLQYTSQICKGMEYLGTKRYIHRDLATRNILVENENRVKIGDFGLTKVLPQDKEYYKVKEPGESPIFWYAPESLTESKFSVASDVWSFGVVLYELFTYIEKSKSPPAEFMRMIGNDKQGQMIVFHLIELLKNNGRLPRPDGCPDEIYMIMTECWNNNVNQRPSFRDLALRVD
T2 sequence (P23458 875-1153 limits assumed): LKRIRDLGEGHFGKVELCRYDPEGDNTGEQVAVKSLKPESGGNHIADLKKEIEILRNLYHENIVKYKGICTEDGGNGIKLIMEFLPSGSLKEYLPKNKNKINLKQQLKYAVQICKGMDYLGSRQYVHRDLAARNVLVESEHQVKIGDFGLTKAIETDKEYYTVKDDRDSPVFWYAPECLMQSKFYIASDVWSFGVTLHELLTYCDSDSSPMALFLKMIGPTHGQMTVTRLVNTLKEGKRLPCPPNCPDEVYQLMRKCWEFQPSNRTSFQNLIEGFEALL

| SMILES | pIC50 [1] | pIC50 [2] | pIC50 (TYK2 kinase domain (JH1)) | pIC50 (JAK1 kinase domain (JH1)) | pIC50 (JAK2 kinase domain (JH1)) | pIC50 (JAK3 kinase domain (JH1)) | pIC50 [3] | pIC50 [4] |
| --- | --- | --- | --- | --- | --- | --- | --- | --- |
| CNC(=O)c1nnc(Nc2ccc(F)cn2)cc1Nc1cccc2c1OCc1cnn(C)c1-2 [Compound 49, 6-((5-fluoropyridin-2-yl)amino)-N-methyl-4-((1-methyl-1,4-dihydrochromeno[4,3-c]pyrazol-6-yl)amino)pyridazine-3-carboxamide] | 6.52 to 7.52 | < 6.00 | < 6.00 | < 6.00 | < 6.00 | < 6.00 | 6.00 to 6.52 | > 7.52 |
| [2H]C([2H])([2H])NC(=O)c1cnc(NC(=O)C2CC2)cc1Nc1cccc2c1N(C([2H])([2H])[2H])Cc1cn(C)nc1-2 [Compound 26, 6-(cyclopropanecarboxamido)-N-(methyl-d3)-4-((2-methyl-5-(methyl-d3)-4,5-dihydro-2H-pyrazolo[4,3-c]quinolin-6-yl)amino)nicotinamide] | > 7.52 | > 7.52 | < 6.00 | < 6.00 | < 6.00 | < 6.00 | < 6.00 | 6.52 to 7.52 |
| Cn1cc2c(n1)-c1cccc(Nc3cc(Nc4ccc(F)cn4)nnc3C(N)=O)c1OC2 [Compound 8, 6-((5-fluoropyridin-2-yl)amino)-4-((2-methyl-2,4-dihydrochromeno[4,3-c]pyrazol-6-yl)amino)pyridazine-3-carboxamide] | > 7.52 | 6.52 to 7.52 | < 6.00 | < 6.00 | 6.00 to 6.52 | < 6.00 | 6.00 to 6.52 | > 7.52 |
| CNC(=O)c1nnc(NC(=O)C2CC2)cc1Nc1cccc2c1OCc1cnn(C)c1-2 [Compound 50, 6-(cyclopropanecarboxamido)-N-methyl-4-((1-methyl-1,4-dihydrochromeno[4,3-c]pyrazol-6-yl)amino)pyridazine-3-carboxamide] | 6.00 to 6.52 | 6.00 to 6.52 | < 6.00 | < 6.00 | < 6.00 | < 6.00 | 6.52 to 7.52 | 6.00 to 6.52 |
| [2H]C([2H])([2H])NC(=O)c1nnc(NC(=O)C2CC2)cc1Nc1cccc2c1N(C)Cc1c[nH]nc1-2 [Compound 27, 6-(cyclopropanecarboxamido)-N-(methyl-d3)-4-((5-methyl-4,5-dihydro-2H-pyrazolo[4,3-c]quinolin-6-yl)amino)pyridazine-3-carboxamide] | > 7.52 | > 7.52 | < 6.00 | < 6.00 | < 6.00 | < 6.00 | < 6.00 | 6.52 to 7.52 |
| [2H]C([2H])([2H])NC(=O)c1nnc(NC(=O)C2CC2)cc1Nc1nccc2c1N(C)Cc1cn(C)nc1-2 [Compound 65, 6-(cyclopropanecarboxamido)-4-((2,5-dimethyl-4,5-dihydro-2H-pyrazolo[4,3-c][1,7]naphthyridin-6-yl)amino)-N-(methyl-d3)pyridazine-3-carboxamide] | > 7.52 | > 7.52 | < 6.00 | < 6.00 | < 6.00 | < 6.00 | < 6.00 | 6.52 to 7.52 |
| [2H]C([2H])([2H])NC(=O)c1cnc(Nc2ccc(F)cn2)cc1Nc1cccc2c1N(C)Cc1cn(C)nc1-2 [Compound 13, 4-((2,5-dimethyl-4,5-dihydro-2H-pyrazolo[4,3-c]quinolin-6-yl)amino)-6-((5-fluoropyridin-2-yl)amino)-N-(methyl-d3)nicotinamide] | > 7.52 | > 7.52 | < 6.00 | < 6.00 | < 6.00 | < 6.00 | < 6.00 | 6.00 to 6.52 |

Source: US12122785B2, “Substituted pyridines, pyridazines, pyrimidines, and 1,2,4-triazines as TYK2 inhibitors” (Sudo Biosciences Limited, priority 2021, dated 2024)
